Results published in paper PMC9827040 (Blood Advances, 2022).

How the values were obtained:
TMD-8 BTK C481S cells = assay: Cell proliferation, C481S BTK-overexpressing TMD-8 cells; assay type: cell-based, human
[1] = system: CCL3 and CCL4 secretion by TMD-8 cells; assay: CCL3 & CCL4 ELISA in anti-IgM stimulated TMD-8 cells; assay type: cell-based, human; settings: 10 nM for 24 hours, 10 μg/mL anti-IgM 8 hours
CRBN = CRBN (Homo sapiens, UniProt Q96SW2); assay: CRBN-target-binding assay; settings: HTRF
[2] = system: WT and mutant BTK (E41K, T474I, C481S, C481R, C481T, C481Y, C481F, L528W); assay: WT or mutant BTK transiently expressed in HEK293 cells, immunoblotting; assay type: cell-based; settings: HEK293, 0.1, 1 and 10 μM, 24 hours
[3] = system: CRBN neosubstrates (Ikaros, Helios, Aiolos, GSPT1, CK1-a); assay: Immunoblotting of CRBN neosubstrates in hematological cell lines; assay type: cell-based; settings: 100 nM, 24 or 72 hours

CRBN, sequence (Q96SW2 whole entry): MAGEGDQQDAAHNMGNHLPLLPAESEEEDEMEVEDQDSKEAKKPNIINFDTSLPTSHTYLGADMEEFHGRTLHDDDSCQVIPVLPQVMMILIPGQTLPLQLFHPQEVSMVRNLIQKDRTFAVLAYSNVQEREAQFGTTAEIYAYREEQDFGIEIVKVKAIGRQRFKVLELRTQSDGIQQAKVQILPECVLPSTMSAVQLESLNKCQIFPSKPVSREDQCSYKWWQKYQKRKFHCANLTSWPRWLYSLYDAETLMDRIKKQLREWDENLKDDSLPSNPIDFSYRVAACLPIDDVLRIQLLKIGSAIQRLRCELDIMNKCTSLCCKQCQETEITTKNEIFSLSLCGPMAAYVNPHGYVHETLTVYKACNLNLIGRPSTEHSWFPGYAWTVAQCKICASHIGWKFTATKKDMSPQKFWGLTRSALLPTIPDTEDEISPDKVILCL

Row | Structure (SMILES) | CCL3 or CCL4 secretion [1] | binding to CRBN (CRBN) | further results
1 | C=CC(=O)N1CCC[C@@H](n2nc(-c3ccc(Oc4ccccc4)cc3)c3c(N)ncnc32)C1 [ibrutinib] | significantly abrogated CCL3 or CCL4 secretion | did not bind to CRBN | inhibition of proliferation of C481S BTK-overexpressing TMD-8 cells (TMD-8 BTK C481S cells): resistance
2 | Nc1ncnc2c1c(-c1ccc(Oc3ccccc3)cc1)nn2C1CCN(CCOCCOCC(=O)Nc2ccc3c(c2)C(=O)N(C2CCC(=O)NC2=O)C3=O)CC1 (centres unmarked) [MT-802] | little or no effect |  | degradation of WT and mutant BTK [2]: can also degrade E41K, C481R, C481Y, C481T, and C481F BTK mutants
3 | O=C1CCC(N2C(=O)c3ccccc3C2=O)C(=O)N1 (centres unmarked) [thalidomide] |  |  | change in neosubstrates of U2932 and WSU-WM [3]: No significant change; degradation of CRBN neosubstrates in any of the tested cell lines [3]: did not lead to any significant degradation
4 | O=C(c1ccc(Oc2ccccc2)cc1Cl)c1c[nH]c2ncnc(N[C@@H]3CC[C@@H](CO)OC3)c12 [ARQ-531] | little or no effect | did not bind to CRBN | BTK phosphorylation in C481S and E41K BTK mutants [2]: substantially attenuated
5 | CC#CC(=O)N1CCC[C@H]1c1nc(-c2ccc(C(=O)Nc3ccccn3)cc2)c2c(N)nccn12 [acalabrutinib] | significantly abrogated CCL3 or CCL4 secretion |  | 
